Experimental data: paper PMC9465641 (Frontiers in Pharmacology, 2022)
Counter-ions that a name gives are not always drawn. Positions of bridges follow the written chain, without caps; N, C: chain ends. Non-standard residues stand in square brackets, D forms with d. Residues, ends and D or L forms follow the SMILES beside them. *: point of attachment. X1 = CC[C@H](C)CCCCC(=O)*; Dab = NCC[C@H](N)C(=O)O

How the values were obtained:
[1] = system: carbapenem-resistant gram-negative bacteria; assay: Clinical outcome, microbiological outcome and nephrotoxicity in patients; format: in vivo, human
Experimental: The primary endpoint was the clinical outcome, and the secondary endpoint was the microbiological outcome. Clinical outcomes were defined as valid, if signs and symptoms of infection disappeared or improved on Day 7 after the initiation of colistin therapy; or invalid, defined as any of the following criteria: death related to infection, hemodynamic instability, deteriorated Sequential Organ Failure Assessment (SOFA) score, constant fever >38.5°C, repeat isolation of bacterial phenotypically identical to the index isolate. […] Colistin-induced nephrotoxicity was defined using RIFLE (risk, injury, failure, loss of kidney function, and end-stage renal disease) criteria during treatment ([Bellomo et al., 2004]). […]

[2] = Individual drug exposure at steady state (PK/PD analysis); format: in vivo, human
A. baumannii = assay: MIC for colistin of causative pathogen; format: cell-based; conditions: AB
K. pneumoniae = assay: MIC for colistin of causative pathogen; format: cell-based; conditions: isolate of patient 2; KP
[3] = system: PA+AB (P. aeruginosa + A. baumannii); assay: MIC for colistin of causative pathogen; format: cell-based
[4] = parameters: method as in Al-Khayyat and Aronson, 1973; conditions: dogs; ref Al-Khayyat and Aronson, 1973; cited from earlier work
[5] = parameters: method as in Couet et al., 2011; conditions: colistin converted from CMS; ref Couet et al., 2011; cited from earlier work
[6] = patient 1, Pulmonary, PA+AB, MIC 0.5 mg/L, 1.0 MU q12h, with MER+LIN
[7] = patient 2, Pulmonary, Bloodstream, Urinary tract, KP, MIC 0.5 mg/L, 1.0 MU q12h, with MER
[8] = patient 3, Pulmonary, AB, MIC 0.5 mg/L, 0.75 MU q12h + inhaled 0.25MU q12h, with MER
[9] = patient 6, Pulmonary, Bloodstream, KP, MIC 0.5 mg/L, 1.0 MU q12h + inhaled 0.25MU q12h, with PIP/TAZ
[10] = patient 7, Pulmonary, KP, MIC 0.5 mg/L, 0.75 MU q12h + inhaled 0.25MU q12h, with MER, PIP/TAZ
[11] = patient 8, Pulmonary, AB, MIC 2 mg/L, 0.75 MU q12h + inhaled 0.25MU q12h, with MER
[12] = patient 9, Pulmonary, AB, MIC 0.5 mg/L, 0.75 MU q12h + inhaled 0.25MU q12h, with MER
[13] = patient 10, Pulmonary, AB, MIC 0.5 mg/L, 0.75 MU q12h + inhaled 0.25MU q12h, with MER+LIN
[14] = patient 11, Bloodstream, AB, MIC 0.5 mg/L, 1.0 MU q12h, with MER+TEI
[15] = patient 12, Bloodstream, Urinary tract, KP, MIC 0.5 mg/L, 0.5 MU q8h, with CEF/AVI
[16] = patient 13, Pulmonary, Bloodstream, KP, MIC 0.5 mg/L, 0.5 MU q8h, with CEF/AVI
[17] = patient 14, Pulmonary, Bloodstream, Abdomen, KP, MIC 0.5 mg/L, 0.5 MU q8h, with CEF/AVI
[18] = patient 15, Abdomen, PA+AB, MIC 1, 2 mg/L, 0.75 MU q8h + inhaled 0.25MU q12h, with MER+CEF/SUL
[19] = patient 16, Pulmonary, AB, MIC 0.5 mg/L, 0.5 MU q8h + inhaled 0.25MU q12h, with MER+CEF/SUL
[20] = patient 18, Pulmonary, AB, MIC 0.5 mg/L, 0.75 MU q12h + inhaled 0.25MU q12h, with MER
[21] = patient 19, Pulmonary, AB, MIC 0.5 mg/L, 0.5 MU q8h, with MER+TEI
[22] = patient 1, 1.0 MU q12h, CrCL 63.93 ml/min
[23] = patient 2, 1.0 MU q12h, CrCL 138.05 ml/min
[24] = patient 3, 0.75 MU q12h + inhaled 0.25MU q12h, CrCL 193.84 ml/min
[25] = patient 6, 1.0 MU q12h + inhaled 0.25MU q12h, CrCL 23.79 ml/min
[26] = patient 7, 0.75 MU q12h + inhaled 0.25MU q12h, CrCL 10.2 ml/min
[27] = patient 8, 0.75 MU q12h + inhaled 0.25MU q12h, CrCL 62.44 ml/min
[28] = patient 9, 0.75 MU q12h + inhaled 0.25MU q12h, CrCL 70.98 ml/min
[29] = patient 10, 0.75 MU q12h + inhaled 0.25MU q12h, CrCL 29.3 ml/min
[30] = patient 11, 1.0 MU q12h, CrCL 26.81 ml/min
[31] = patient 12, 0.5 MU q8h, CrCL 9.7 ml/min
[32] = patient 13, 0.5 MU q8h, CrCL 52.49 ml/min
[33] = patient 14, 0.5 MU q8h, CrCL 93.28 ml/min
[34] = patient 15, 0.75 MU q8h + inhaled 0.25MU q12h, CrCL 41.41 ml/min
[35] = patient 16, 0.5 MU q8h + inhaled 0.25MU q12h, CrCL 45.07 ml/min
[36] = patient 18, 0.75 MU q12h + inhaled 0.25MU q12h, CrCL 101.48 ml/min
[37] = patient 19, 0.5 MU q8h, CrCL 91.55 ml/min

SMILES: CC[C@H](C)CCCCC(=O)N[C@@H](CCN)C(=O)N[C@H](C(=O)N[C@@H](CCN)C(=O)N[C@H]1CCNC(=O)[C@H]([C@@H](C)O)NC(=O)[C@H](CCN)NC(=O)[C@H](CCN)NC(=O)[C@H](CC(C)C)NC(=O)[C@@H](CC(C)C)NC(=O)[C@H](CCN)NC1=O)[C@@H](C)O [colistin sulfate] (X1-[Dab]T[Dab][Dab][Dab][dL]L[Dab][Dab]T; lactam 4-C)
- successful clinical outcomes ([1]; 12 of 16 cases, definitive therapy, Day 7): 75%
- microbiological eradication ([1]; 13 of 16 subjects, causative pathogen MIC 0.5–2 mg/L): 81.25%
- colistin-induced nephrotoxicity (RIFLE criteria) ([1]; during the treatment): None of the patients experienced colistin-induced nephrotoxicity
- Clinical outcomes [1, 6]: Valid
- Microbiological outcomes [1, 6]: clearance
- Clinical outcomes [1, 7]: Invalid
- Microbiological outcomes [1, 7]: clearance
- Clinical outcomes [1, 8]: Valid
- Microbiological outcomes [1, 8]: clearance
- Clinical outcomes [1, 9]: Valid
- Microbiological outcomes [1, 9]: clearance
- Clinical outcomes [1, 10]: Valid
- Microbiological outcomes [1, 10]: clearance
- Clinical outcomes [1, 11]: Invalid
- Microbiological outcomes [1, 11]: uncleared
- Clinical outcomes [1, 12]: Valid
- Microbiological outcomes [1, 12]: clearance
- Clinical outcomes [1, 13]: Valid
- Microbiological outcomes [1, 13]: clearance
- Clinical outcomes [1, 14]: Valid
- Microbiological outcomes [1, 14]: clearance
- Clinical outcomes [1, 15]: Valid
- Microbiological outcomes [1, 15]: clearance
- Clinical outcomes [1, 16]: Valid
- Microbiological outcomes [1, 16]: clearance
- Clinical outcomes [1, 17]: Valid
- Microbiological outcomes [1, 17]: clearance
- Clinical outcomes [1, 18]: Invalid
- Microbiological outcomes [1, 18]: uncleared
- Clinical outcomes [1, 19]: Valid
- Microbiological outcomes [1, 19]: clearance
- Clinical outcomes [1, 20]: Valid
- Microbiological outcomes [1, 20]: clearance
- Clinical outcomes [1, 21]: Invalid
- Microbiological outcomes [1, 21]: uncleared
- Css, avg [2, 22]: 1990 ng/mL
- Css, max [2, 22]: 3980 ng/mL
- Css, avg [2, 23]: 1170 ng/mL
- Css, max [2, 23]: 2480 ng/mL
- Css, avg [2, 24]: 570 ng/mL
- Css, max [2, 24]: 1710 ng/mL
- Css, min [2, 24]: 130 ng/mL
- Css, avg [2, 25]: 2430 ng/mL
- Css, max [2, 25]: 3010 ng/mL
- Css, min [2, 25]: 1950 ng/mL
- Css, avg [2, 26]: 1590 ng/mL
- Css, max [2, 26]: 2490 ng/mL
- Css, min [2, 26]: 890 ng/mL
- Css, avg [2, 27]: 1150 ng/mL
- Css, max [2, 27]: 2100 ng/mL
- Css, avg [2, 28]: 2040 ng/mL
- Css, max [2, 28]: 3020 ng/mL
- Css, min [2, 28]: 1400 ng/mL
- Css, avg [2, 29]: 1510 ng/mL
- Css, max [2, 29]: 2480 ng/mL
- Css, min [2, 29]: 870 ng/mL
- Css, avg [2, 30]: 4400 ng/mL
- Css, max [2, 30]: 5840 ng/mL
- Css, avg [2, 31]: 2070 ng/mL
- Css, max [2, 31]: 2670 ng/mL
- Css, avg [2, 32]: 1490 ng/mL
- Css, max [2, 32]: 2090 ng/mL
- Css, avg [2, 33]: 740 ng/mL
- Css, max [2, 33]: 1340 ng/mL
- Css, avg [2, 34]: 2520 ng/mL
- Css, max [2, 34]: 3620 ng/mL
- Css, avg [2, 35]: 1580 ng/mL
- Css, max [2, 35]: 2240 ng/mL
- Css, avg [2, 36]: 860 ng/mL
- Css, max [2, 36]: 1890 ng/mL
- Css, min [2, 36]: 280 ng/mL
- Css, avg [2, 37]: 1330 ng/mL
- Css, max [2, 37]: 1920 ng/mL
- Css, min [2, 37]: 830 ng/mL
- MIC (A. baumannii; isolate of patient 8): 2 µg/mL
- MIC (A. baumannii; isolate of patient 18): 0.5 µg/mL
- MIC (A. baumannii; isolate of patient 19): 0.5 µg/mL
- MIC (K. pneumoniae): 0.5 µg/mL
- MIC ([3]; isolates of patient 15, first printed value): 1 µg/mL
- MIC ([3]; isolates of patient 15, second printed value): 2 µg/mL
- dose recovered from urine [4]: 0.13 ± 0.09%
- CL [5]: 2.92 L/h
